Results as given in patent US20040063612A1, “Neuroprotective agents” (priority 2002, published 2004).

How the values were obtained:
[1] = tested on: cerebral ischaemia; details: cited from earlier work
[2] = tested on: primary cortical neuron cultures; experiment: Neuronal viability after oxidative stress (H2O2), crystal violet assay; type: cell-based, rat; details: pre-treatment one day prior to 40 mM H2O2
Experimental: Cell viability assays. […] Since the MTT assay measures both metabolic function (mitochondrial-based) and cell viability, a second method, the crystal violet assay, was used to assess cell density. For the crystal violet assay, the cells were rinsed in phosphate buffered saline (PBS) and stained for 10 minutes at room temperature with crystal violet solution (0.05% crystal violet, 2% formalin, 10% methanol). After extensive rinsing in tap water baths, the plates were dried and the dye eluted with 200 μl/well of PBS containing 1% SDS. The absorbance was measured at 595 nm using an automated ELISA reader.
High through-put screening with primary neuronal cell cultures. Primary neuronal cells were cultured in 96-well plates coated with collagen type IV or laminin.
Cerebral cortex tissue harvested from 16-18 day old rat fetuses (Sprague-Dawley) was incubated for 10 minutes in calcium-free and magnesium-free Hanks balanced salt solution (CMF-HBSS), followed by digestion in 0.25% trypsin/CMF-HBSS for 30 minutes at 37° C. […]
The cell viability was measured using the crystal violet assay one day after the oxidative injury. […]
Viability is expressed as percentage change relative to cultures treated only with the oxidant. […] Cell viability was measured using the crystal violet assay 1 day after the oxidative injury. […] Standard deviations calculated for 8 replicate cultures were <10%.

Structure (SMILES) | infarct volume reductions [1] | increase in viability (in words) [2] | neuronal rescue (in words) [2]
[Mg+2] [Mg, magnesium] | 25-61% |  | 
c1ccc(Nc2ccccc2)cc1 [Diphenylamine, diphenylamine] |  | modest increase in viability | less pronounced neuronal rescue
